Molecules are shown by their SMILES. Activity calls are given as the source filed them. No cut-off for these calls is given here.

Here are results for one compound from ChEMBL document CHEMBL4385620, “Inhibition of polypeptide N-acetyl-α-galactosaminyltransferases is an underlying mechanism of dietary polyphenols preventing colorectal tumorigenesis” (Bioorg Med Chem, 2019).

Series [1] concerns the target T1, Polypeptide N-acetylgalactosaminyltransferase 2 (Homo sapiens, UniProt Q10471). The series is described as follows: Non-competitive inhibition of human recombinant FLAG-tagged ppGalNAcT2 expressed in HEK293 cells using UDP-GalNAc as substrate by HPLC-based enzyme assay.
In series [2] the target is T2, Polypeptide N-acetylgalactosaminyltransferase 1 (Homo sapiens, UniProt Q10472).
T2 sequence (Q10472 whole entry): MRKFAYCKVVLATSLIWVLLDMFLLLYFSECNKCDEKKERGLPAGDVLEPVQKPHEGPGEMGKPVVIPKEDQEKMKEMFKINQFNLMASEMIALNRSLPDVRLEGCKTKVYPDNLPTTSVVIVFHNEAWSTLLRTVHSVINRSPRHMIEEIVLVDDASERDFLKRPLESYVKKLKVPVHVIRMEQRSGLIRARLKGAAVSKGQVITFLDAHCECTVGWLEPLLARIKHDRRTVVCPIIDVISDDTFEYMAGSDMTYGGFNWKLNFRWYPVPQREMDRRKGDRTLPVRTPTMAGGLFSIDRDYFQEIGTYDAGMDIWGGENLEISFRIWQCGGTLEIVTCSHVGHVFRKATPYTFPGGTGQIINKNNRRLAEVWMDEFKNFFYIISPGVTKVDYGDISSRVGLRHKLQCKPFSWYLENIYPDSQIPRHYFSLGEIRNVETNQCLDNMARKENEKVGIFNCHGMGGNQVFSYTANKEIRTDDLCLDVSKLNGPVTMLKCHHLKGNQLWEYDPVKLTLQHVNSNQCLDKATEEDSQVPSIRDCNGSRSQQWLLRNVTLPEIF
The series is described as follows: Inhibition of catalytic activity of ppGalNAcT1 (unknown origin) using EA2 peptide as substrate incubated for 30 mins by HPLC-based enzyme assay.

Series [3] has as its target T3, Polypeptide N-acetylgalactosaminyltransferase 3 (Homo sapiens, UniProt Q14435).
T3 sequence (Q14435 whole entry): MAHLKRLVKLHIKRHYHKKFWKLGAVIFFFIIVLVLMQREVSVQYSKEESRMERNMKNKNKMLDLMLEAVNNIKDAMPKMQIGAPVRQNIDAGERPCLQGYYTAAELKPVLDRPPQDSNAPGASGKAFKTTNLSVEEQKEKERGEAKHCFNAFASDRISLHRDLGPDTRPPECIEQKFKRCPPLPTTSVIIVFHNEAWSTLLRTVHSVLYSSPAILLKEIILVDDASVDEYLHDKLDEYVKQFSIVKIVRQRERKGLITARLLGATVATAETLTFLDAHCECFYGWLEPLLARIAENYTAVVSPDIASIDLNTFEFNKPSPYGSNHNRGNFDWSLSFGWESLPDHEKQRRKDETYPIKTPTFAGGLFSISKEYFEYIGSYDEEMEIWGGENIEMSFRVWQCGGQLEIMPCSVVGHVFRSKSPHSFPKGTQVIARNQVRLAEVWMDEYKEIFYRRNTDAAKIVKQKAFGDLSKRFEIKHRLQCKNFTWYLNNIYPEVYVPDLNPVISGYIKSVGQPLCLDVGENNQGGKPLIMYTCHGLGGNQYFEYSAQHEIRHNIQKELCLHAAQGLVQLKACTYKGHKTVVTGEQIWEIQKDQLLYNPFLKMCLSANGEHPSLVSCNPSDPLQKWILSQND
The series is described as follows: Inhibition of catalytic activity of ppGalNAcT3 (unknown origin) using EA2 peptide as substrate incubated for 30 mins by HPLC-based enzyme assay.

For series [4], the target named is T1, Polypeptide N-acetylgalactosaminyltransferase 2. The series is described as follows: Inhibition of catalytic activity of human recombinant FLAG-tagged ppGalNAcT2 using Muc2 peptide as substrate incubated for 30 mins by HPLC-based enzyme assay.
Series [5] has the same target. The series is described as follows: Inhibition of catalytic activity of human recombinant FLAG-tagged ppGalNAcT2 using Muc7 peptide as substrate incubated for 30 mins by HPLC-based enzyme assay.
The target of series [6] is Polypeptide N-acetylgalactosaminyltransferase 2 (Homo sapiens, UniProt Q10471, W282A). The series is described as follows: Inhibition of catalytic activity of human recombinant FLAG-tagged ppGalNAcT2 W282A mutant expressed in HEK293 cells using EA2 peptide as substrate by HPLC-based enzyme assay.
Chain of Polypeptide N-acetylgalactosaminyltransferase 2 (Homo sapiens, UniProt Q10471, W282A) (Q10471 whole entry W282A): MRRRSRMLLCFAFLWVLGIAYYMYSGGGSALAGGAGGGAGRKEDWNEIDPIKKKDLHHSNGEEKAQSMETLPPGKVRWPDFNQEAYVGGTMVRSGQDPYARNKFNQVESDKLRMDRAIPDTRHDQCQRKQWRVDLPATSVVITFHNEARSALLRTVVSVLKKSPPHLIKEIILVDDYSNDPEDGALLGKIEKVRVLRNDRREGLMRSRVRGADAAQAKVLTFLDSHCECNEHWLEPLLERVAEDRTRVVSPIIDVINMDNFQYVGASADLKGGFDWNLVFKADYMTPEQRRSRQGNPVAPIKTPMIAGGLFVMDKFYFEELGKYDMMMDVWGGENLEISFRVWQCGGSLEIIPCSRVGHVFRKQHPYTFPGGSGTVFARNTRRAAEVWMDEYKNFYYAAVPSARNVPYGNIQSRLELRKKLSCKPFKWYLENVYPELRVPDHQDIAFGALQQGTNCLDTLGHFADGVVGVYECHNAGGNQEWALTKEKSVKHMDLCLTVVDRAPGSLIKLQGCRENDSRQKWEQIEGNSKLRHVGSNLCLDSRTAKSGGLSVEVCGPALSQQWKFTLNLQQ
Series [7] has as its target T1, Polypeptide N-acetylgalactosaminyltransferase 2. The series is described as follows: Inhibition of ppGalNAcT2 in human HT-29 cells assessed as reduction in O-GalNAc glycans by measuring PNA lectin signal on cell surface at 40 uM incubated for 48 hrs by DAPI staining based immunofluorescence method.
The target is the same in series [8]. The series is described as follows: Inhibition of ppGalNAcT2 in human HT-29 cells assessed as reduction in O-GalNAc glycans by measuring PNA lectin expression at 20 to 60 uM incubated for 48 hrs by Western blot analysis. The format is cell-based. On the technique in general: Immunoblotting shows a protein as a band on a membrane.
In series [9] the test system is HT-29. The series is described as follows: Effect on ppGalNAcT1 expression level in human HT-29 cells at 40 uM incubated for 48 hrs by Q-PCR analysis. It is filed as ADME, cell-based. Particulars: ht-29, 48 h.
The test system of series [10] is HT-29. The series is described as follows: Effect on ppGalNAcT5 expression level in human HT-29 cells at 40 uM incubated for 48 hrs by Q-PCR analysis. The format is ADME, cell-based. The conditions noted are these: ht-29, 48 h.
Series [11] relates to HT-29. The series is described as follows: Effect on ppGalNAcT10 expression level in human HT-29 cells at 40 uM incubated for 48 hrs by Q-PCR analysis. It is filed as ADME, cell-based. The conditions noted are these: ht-29, 48 h.
The species named for the next series is Cricetulus griseus. The series is described as follows: Inhibition of ppGalNAcT2 in Chinese hamster ldlD cells assessed as reduction in O-GalNAc glycosylation by measuring metabolic labelled-GalNAz signal at 40 uM incubated for 48 hrs by click chemistry assay. The format is cell-based.
In series [12] the test system is HT-29. The series is described as follows: Cytotoxicity against human HT-29 cells at 40 uM incubated for 48 hrs by CCK-8 assay. It is filed as cell-based. The conditions noted are these: ht-29, 48 h. Background: Tetrazolium dyes change colour on reduction, which living cells bring about.
Series [13] relates to HCT-116. The series is described as follows: Cytotoxicity against human HCT116 cells at 40 uM incubated for 48 hrs by CCK-8 assay. The format is cell-based. Particulars: hct-116, 48 h.
The subject of a further series is RKO. The series is described as follows: Cytotoxicity against human RKO cells at 40 uM incubated for 48 hrs by CCK-8 assay. The format is cell-based.
Series [14] deals with HT-29. The series is described as follows: Antimigratory activity in human HT-29 cells at 40 uM incubated for 48 hrs by crystal violet staining based method. It is filed as functional, cell-based.
In series [15] the test system is HCT-116. The series is described as follows: Antimigratory activity in human HCT116 cells at 40 uM incubated for 48 hrs by crystal violet staining based method. The format is functional, cell-based.
Series [16] relates to HCT-116. The series is described as follows: Anti-invasive activity in human HCT116 cells at 40 uM incubated for 48 hrs by crystal violet staining based method. The format is functional, cell-based.
Series [17] deals with HT-29. The series is described as follows: Reduction in PDPN protein expression in human HT-29 cells at 40 uM for 48 hrs by Western blot analysis. It is filed as functional, cell-based.

T1 sequence (Q10471 whole entry): as the sequence (Q10471 whole entry W282A) above, with A282W counted along it

For `O=c1oc2c(O)c(O)ccc2c2cc(O)c(O)cc12`, the Ki (usually the dissociation constant of the complex between target and ligand, obtained from inhibition or displacement) in series [1] was found to be 6150 nM. For the same compound, the IC50 – broadly, the point on the concentration scale where inhibition reaches its midpoint – is 2460 nM in series [2]; 1610 nM in series [3]; 1140 nM in series [4]; 1250 nM in series [5]; 3120 nM in [6]. Also, the inhibition result (in series [7]; in series [8]; in the series listed under Cricetulus griseus) was “Active” throughout. Moreover, the Activity entry in the series on HT-29 [9], with HT-29 [10], with HT-29 [11], with HT-29 [12], in the series with HCT-116 [13] and with RKO was “Non-Toxic” each time. Further, the result in the series on HT-29 [14], with HCT-116 [15], in the series with HCT-116 [16] and in the series on HT-29 [17] was Active.
